Results on three molecules are retold here after patent US20120244079A1, “TRACEABLE RETINOID ACID FOR IMAGING, DISEASE PREVENTION AND THERAPY” (BAYLOR COLLEGE OF MEDICINE, priority 2009, published 2012).

Structures are written as SMILES. “Also recorded” adds a separate entry of the source.

The subject of one data set is tumor xenograft. The data set can be described thus: Dose acceleration response (tumor-to-muscle ratio). In kind it is in vivo, mice. As to conditions: injection dose increased from 0.03 to 0.125 mg, p>0.5270. On the procedure:
(§1) Tumor-bearing mice were divided into three groups for the dose acceleration study; they were injected with 0.03 mg, 0.06 mg, or 0.125 mg of the NIR-labeled retinoid agent that was equivalent to the non-labeled retinoid, respectively. The tumor-to-muscle ratio was calculated from the imaging data. The systemic toxicity was measured using control mice. The mice were treated with PBS (control), a low dose (0.1 mg/kg/week), or a dosage that was five times lower than that reported in published human clinical trials (0.6 mg/kg/week). The bodyweight was measured every other day, and the percentage gain in bodyweight was used as the toxicity indicator.
(§2) To test for a saturation effect of the target-specific biological agent, three groups of animal were injected with different doses of the retinoid agent. The tumor-to-muscle ratio was used to compare the dose response in the tumor. […] However, the higher dose was associated with a significant decrease in the gain of bodyweight (FIG. 7B).

The subject of another data set is human cancer cells. The data set can be described thus: Confocal microscopy: effect of temperature and signal localisation. It counts as cell-based. The procedure: (§3) Cells were harvested, and the NIR-labeled retinoid agent or the free dye (100 μm) was added. The mixture was incubated for 60 minutes at 37° C. Cells were washed in PBS. Sytox Green in 95% ethanol was added, and cells were incubated for 15 minutes at 4° C. to fix them and stain their nuclei. Stained cells were then transferred to a slide and mounted for microscopic examination. Images were recorded by an Olympus confocal microscope. The microscope was equipped with an excitation (Ex) light source and emission (Em) filters to detect and separate the labeled retinoids (ex/em 785/810 nm) and cell nuclei (Ex/Em 488/510 nm) signals. Confocal image signals were recorded from one slice of a cell z-stack. Sytox green and NIR-labeled retinoid or NIR dye signals were pseudo-colored green (emission at 510 nm) and red (emission at 810 nm), respectively.
(§4) The uptake of NIR-labeled retinoid agent by human cancer cells was verified by confocal microscopy (FIG. 1A to 1H). […] The nuclear internalization was temperature-dependent (FIG. 1J and FIG. 1K). The signal intensity was stronger in cells incubated at 37° C. (FIG. 1I) than in those incubated at 4° C. (FIG. 1L) or the negative cells incubated at 37° C. (FIG. 1M, FIG. 1N, and FIG. 1O). These differences are statistically significant (FIG. 1P).
The negative cells also show the minimum signal intensity (FIG. 1M and FIG. 1N).

The subject of data set [1] is F4 osteosarcoma tumor xenograft. In words: In vivo NIR imaging, side-by-side with free dye. Conditions: for clearance from the body, time: following the injection. Also on record: species or system athymic nude mice. The procedure:
(§5) Four- to six-week-old male athymic nude mice (18-22 g) were housed and fed sterilized pellet chow and provided sterilized water. Animals were maintained in a pathogen-free mouse colony. The facility is accredited by the American Association for Laboratory Animal Care, and all experiments were performed in accordance with the guidelines of the Institutional Animal Care and Use Committee. Tumor cells were harvested near confluence by incubating them with 0.05% trypsin-EDTA. Cells were pelleted by centrifugation at 130×g for five minutes and resuspended in sterile phosphate-buffered saline (PBS). Tumors were induced in animals by subcutaneous injection of approximately one million tumor cells into the hind leg region of the mice. A total of 75 mice were used in this study.
(§6) The NIR-labeled retinoid agent was intraveneously (i.v.) injected into the tumor-bearing mice at a dose of 10 nmol for imaging. The animals were imaged from 1 to 9 days after the injection using an In-Vivo Multispectral System FX, a tandem (SPECT/CT) single photon emission computed tomography (SPECT) and computed tomography (CT) system and imaged with a positron emission tomography (PET) system.
Regions of interest were quantified from the in vitro and in vivo data using ImageJ (National Institutes of Health, USA). Data were analyzed using one-way (analysis of variance) ANOVA or general linear model (GLM). Data comparisons were illustrated in notched box-and-whisker plots. These plots provide the minimum, 25th percentile, median (central line), mean (+), 75th percentile and maximum.
The tumor mass was located in the left hind region of the mouse (FIG. 2A). There was no calcification of the tumor mass (FIG. 2B). […] To eliminate the potential well-established enhanced permeability and retention (EPR) effect of the imaging results, a side-by-side imaging comparison was performed to study and to directly compare the free dye (FIG. 2E to FIG. 2I) and compound 3 (FIG. 2J to FIG. 2M). The same intensity scale was used in this analysis. […] Finally, the merged free dye, RGD and CT images show the only high vasculature signal in the vicinity of the tumor (FIG. 2I). In contrast, the merged compound 3, RGD and CT images show both vasculature and RA (compound 3) signal intensity increases in the tumor region (FIG. 2N, yellow). All of the data were further analyzed at the animal population level.

For data set [2], the system named is human osteosarcoma SOSP-9607 cells. The data set can be described thus: Confocal microscopy cell binding/uptake. It counts as cell-based. Conditions: 100 μm, 60 minutes at 37° C. On the procedure:
(§7) The human colon (HT-29), nasal (CCL-30) and lung (A549) cancer cell lines were purchased from the American Type Culture Collection (ATCC, Manassas, Va.). Human osteosarcoma (F5M2, OS-9901, SOSP-S607, F4, CM319) and nasopharyngeal carcinoma cell lines (CNE-2) were generated in-house. The cells were cultured in Dulbecco's Modified Eagle Medium supplemented with high glucose and F12 nutrient (DMEM/F12, Invitrogen, Carlsbad, Calif.) with 10% fetal bovine serum (Hyclone, Logan, Utah) in a humidified incubator maintained at 37° C. with 5% CO2.
as §3, §4

Data set [3] concerns human colon cancer (HT-29) cells. In words: Confocal microscopy cell binding/uptake. In kind it is cell-based. As to conditions: 100 μm, 60 minutes at 37° C. The procedure:
as §7, §3, §4

The test system of data set [4] is human osteosarcoma OS-9901 cells. The data set can be described thus: Confocal microscopy cell binding/uptake. In kind it is cell-based. As to conditions: 100 μm, 60 minutes at 37° C. The procedure:
as §7, §3, §4

Data set [5] relates to human osteosarcoma F4 cells. In words: Confocal microscopy cell binding/uptake. Conditions: 100 μm, 60 minutes at 37° C. It counts as cell-based. On the procedure: as §7, §3, §4
In data set [6] the test system is human nasopharyngeal cancer (CNE-2) cells. In words: Confocal microscopy cell binding/uptake. In kind it is cell-based. As to conditions: 100 μm, 60 minutes at 37° C. On the procedure: as §7, §3, §4
The test system of data set [7] is human osteosarcoma F5M2 cells. In words: Confocal microscopy cell binding/uptake. It counts as cell-based. As to conditions: 100 μm, 60 minutes at 37° C. The procedure:
as §7, §3, §4

Data set [8] concerns human lung cancer (A549) cells. The data set can be described thus: Confocal microscopy cell binding/uptake. It counts as cell-based. As to conditions: 100 μm, 60 minutes at 37° C. On the procedure: as §7, §3, §4
Another data set has as its system CM319 osteosarcoma cells. In words: Confocal microscopy cell binding/uptake. It counts as cell-based, human. On the procedure:
as §7, §3

The nature of data set [9]: Systemic toxicity by bodyweight gain. It counts as in vivo, mice. The procedure: as §1, §2
The test system of data set [10] is human colon cancer xenograft. In words: Tumor-to-muscle and liver-to-tumor ratios over time. In kind it is in vivo, athymic nude mice. As to conditions: for signal in the liver versus background/muscle level: 14 days post-injection, single 18.4 μg injection. On the procedure:
as §5
The NIR-labeled retinoid agent was intraveneously (i.v.) injected into the tumor-bearing mice at a dose of 10 nmol for imaging. […] System FX, a tandem (SPECT/CT) single photon emission computed tomography (SPECT) and computed tomography (CT) system and imaged with a positron emission tomography (PET) system.
[…] […] The imaging agent was initially concentrated in the liver after the injection, but it gradually redistributed from the liver to the tumor over time. […] The maximum TMR (2.7) was reached 6 days post-injection in some animals, after which it started to decrease.

Data set [11] has as its system human colon, lung, nasal cancer, and neuroblastoma xenografts. The data set can be described thus: In vivo NIR imaging of other xenografts. Also on record: species or system athymic nude mice. As to conditions: across all four tumor xenografts. The procedure: as §5, §6
To confirm the findings in other cancer cell types, the RA agent was tested in human colon (FIG. 4A), lung (FIG. 4B), nasal (FIG. 4C) cancer, and neuroblastoma (FIG. 4 D) xenografts. […]

For data set [12] the following is noted: 30 mg/day, stage I and II head and neck cancer patients; cited from earlier work.

For `CC1=C(/C=C/C(C)=C/C=C/C(C)=C/C(=O)NCCCCCCNC(=O)CCCCCN2/C(=C/C=C3\CCCC(/C=C/C4=[N+](CCCCS(=O)(=O)O)c5ccc(S(=O)(=O)O)cc5C4(C)C)=C3Oc3ccc(S(=O)(=O)O)cc3)C(C)(C)c3cc(S(=O)(=O)O)ccc32)C(C)(C)CCC1` [compound 3, RA-HN(CH2)6NH—IRdye 800], the “tumor-to-muscle ratio, dose response” value in the data set with tumor xenograft (listed as imaging agent) is on record as “no statistically significant difference”; in the data set with tumor xenograft (listed as retinoid agent), “no significant difference”. The “binding when incubated at 4° C.” value in the data set with human cancer cells (4° C.) is on record as “minimum binding”. In addition, the “signal intensity in cells incubated at 37° C. versus 4° C. or negative cells” value in the data set with human cancer cells (37° C. vs 4° C., statistically significant, listed as NIR-labeled retinoid agent) is “stronger; also recorded: higher signal intensity was observed at 37 °C than at 4 °C”. Besides, the “localisation of retinoid signal in cells” value in the data set on human cancer cells (37° C., confocal, listed as NIR-labeled retinoid agent) is “not only detected in the cytoplasm but also in the nuclei; also recorded: localizes to the cell membrane and cytoplasm”. Besides, the “signal intensity in the liver and tumor” value in data set [1] (72 hours post-injection) is listed as “high signal intensity”. Moreover, the “tumor-to-background ratio (TBR)” value in data set [1] (72 hours post-injection, single animal) is on record as 2.76. Also, the “signal intensity (TBR), IRDye800CW group vs RA group” value in [1] (within the first 24 hours, P=0.6088) is reported as “no statistically significant difference”. For the same molecule, the “binding to cells (NIR signal, confocal image)” value in [2], in data set [3], in data set [4], in data set [5], in data set [6] and in data set [7] was “bound” each time. For the same molecule, in data set [8], the “binding to cells (NIR signal, confocal image)” value is given as “bound”. In addition, in the data set on CM319 osteosarcoma cells, the binding to cells result is given as “strongly binds to all the tested human cancer cell lines except CM319 osteosarcoma cells”. Also, in [9] (high dose 0.6 mg/kg/week, p=0.0003 vs control, p=0.0001 vs low dose), the “percentage of bodyweight gain vs untreated control and low dose group” value is reported as “significantly lower”. Further, the “percentage of bodyweight gain vs control group” value in data set [9] (low dose 0.1 mg/kg/week, p=0.0519) is “no differences”. Further, in data set [10] (1 day post-injection), the “liver-to-tumor ratio relative to tumor-to-muscle ratio” value is given as “almost twice as high”. Further, the “signal in the liver versus background/muscle level” value in data set [10] (listed as NIR-labeled retinoid agent) is on record as “still higher than the background level”; in [10] (listed as retinoid analog imaging agent), “had not returned to the muscle level”. The “time at which liver-to-tumor and tumor-to-muscle ratios intersected” value in data set [10] (post-injection) amounted to 3 days. For the same molecule, the “maximum tumor-to-muscle ratio (TMR)” value in data set [10] (single injection 18.4 μg per 25 grams of bodyweight, some animals) is 2.7. Moreover, the tumor-to-background ratio in data set [11] was 2.15 to 2.74.

Regarding `CC1=C(/C=C/C(C)=C/C=C/C(C)=C\C(=O)O)C(C)(C)CCC1` [retinoid, isotretinoin], the “patients developing adverse effects” value in data set [12] is 49.7%.

`CC1(C)C(=CC=C2CCCC(C=CC3=[N+](CCCCCC(=O)[O-])c4ccc(S(=O)(=O)[O-])cc4C3(C)C)=C2Oc2ccc(S(=O)(=O)[O-])cc2)N(CCCCS(=O)(=O)[O-])c2ccc(S(=O)(=O)[O-])cc21.[Na+].[Na+].[Na+].[Na+]` [IRDye800CW, reference compound]: the “optical signal in the animal” value in [1] (after 24 hours) was “completely undetectable”. The “signal intensity (TBR), IRDye800CW group vs RA group” value in data set [1] (after 24 hours, P<0.0001) is reported as “significantly lower”. Besides, the “clearance from the body, time” value in data set [1] is 24 h; in data set [1] (listed as free dye) it was no more than 24 h. Besides, the “binding to cells (NIR signal, confocal image)” value in data set [2], in [3], in data set [4], in data set [5], in data set [6] and in data set [7] was “no detectable signal” throughout. Further, the “binding to cells (NIR signal, confocal image)” value in data set [8] is on record as “no detectable signal”.
